From PubChem BioAssay (NCI)
Values joined by “and” are separate entries in the source; they are usually repeats but may differ in a detail not shown here. Equal entries are not always repeated.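 Exposure lasted 48 hours, with cells grown in 96-well plates and compounds tested at five concentrations. At the GI50, growth is halved. TGI marks complete inhibition of growth.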

How the values were obtained:
Experiment in all cases: NCI tumour cell line growth inhibition, 48 h
[1] = tested on: A498 renal
[2] = tested on: HCC-2998 colon
[3] = tested on: HOP-92 NSCLC
[4] = tested on: IGROV1 ovarian
[5] = tested on: SF-268 CNS
[6] = tested on: SK-MEL-2 melanoma
[7] = tested on: U251 CNS
[8] = tested on: CAKI-1 renal

Row | SMILES | TGI [1] [µM] | TGI [2] [µM] | TGI [3] [µM] | TGI [4] [µM] | TGI [5] [µM] | TGI [6] [µM] | TGI [7] [µM] | TGI [8] [µM] | GI50 [3] [µM] | GI50 [6] | GI50 [1] [µM] | GI50 [2] [µM] | GI50 [4] [µM] | GI50 [5] [µM] | GI50 [7] | GI50 [8] [µM]
1 | CCOC(=O)C1=C(C)N(NC(=O)Nc2ccccc2)C2(N)N(NC(=O)Nc3ccccc3)C(C)=C(C(=O)OCC)C12C(=O)OCC (stereo unspecified) | > 100 | 80.8 | 42.8 | > 100 | > 100 | > 100 | > 100 | – | – | – | – | – | – | – | – | –
2 | CN1C(=O)C(=O)N2c3ccc(Cl)cc3C3(c4ccccc4)N=CC12O3 (stereo unspecified) | 22.9 | 28.4 | 6.63 | 40 | 25.6 | 30.5 | 30.1 | 42.7 | – | – | – | – | – | – | – | –
3 | O=C(/C=C/c1c(O)ccc2ccccc12)c1ccc([N+](=O)[O-])cc1 | > 100 | > 100 | 30.9 | > 100 | > 100 | > 100 | > 100 | > 74 | – | – | – | – | – | – | – | –
4 | O=C(Nc1nc(=S)[nH][nH]1)C(=O)C(C(=O)c1ccc2ccccc2c1)C1OC(=O)c2ccccc21 (stereo unspecified) | > 100 | 24 | 73.7 | 53.7 | > 100 | 53.2 | > 100 | > 100 | – | – | – | – | – | – | – | –
5 | O=C(NC1C=CCC2C(=O)N(c3ccccc3)C(=O)C12)OCc1ccccc1 (stereo unspecified) | – | > 100 | > 100 | > 100 | > 100 | > 100 | > 100 | > 100 | – | – | – | – | – | – | – | –
6 | O=C(O)CSc1n[nH]c(-c2ccccc2O)n1 | > 100 | > 100 | > 100 | > 100 | > 100 | > 100 | > 100 | > 100 | – | – | – | – | – | – | – | –
7 | CC(=O)[O-].CC(=O)[O-].O=C(N/N=C/c1cc(Cl)cc(Cl)c1O)c1ccncc1.[Cu+2] | > 100 | > 100 | > 100 | > 100 | > 100 | > 100 | > 100 | – | > 100 | > 100 µM | – | – | – | – | – | –
8 | CCCCCCCCCCCCNC(=S)OC | 31.6 | 32.9 | 20.1 | 24.3 | 32.8 | 31.1 | 29.5 | 28.3 | – | – | – | – | – | – | – | –
9 | Cc1ccc(S(=O)(=O)N2CCC2c2ccccc2)cc1 (stereo unspecified) | > 100 | > 100 | 78.8 | > 100 | > 100 | > 100 | > 100 | – | – | – | – | – | – | – | – | –
10 | COc1ccc2c(c1)[n+]([O-])c(C(N)=O)c(N)[n+]2[O-] | > 100 | – | > 100 | > 100 | – | > 100 | > 100 | > 100 | – | – | – | – | – | – | – | –
11 | C[C@@]1(O)CC[C@]2(C)C3CCCC3[C@H]12 (stereo partly specified) | > 100 | > 100 | > 100 | > 100 | > 100 | > 100 | > 100 | > 100 | – | – | – | – | – | – | – | –
12 | COc1ccc(/C=C/COC(C)=O)cc1OC | – | > 100 | > 100 | > 100 | > 100 | > 100 | > 100 | > 100 | – | – | – | – | – | – | – | –
13 | Cc1[cH-]c(=O)n(-c2ccccc2)n1.[Au+].[Au].c1ccc([PH+](c2ccccc2)c2ccccc2)cc1.c1ccc([PH+](c2ccccc2)c2ccccc2)cc1 | 38.9 | > 100 | 7.77 | 31.7 | 31.9 | 23.5 | 27.3 | – | 2.79 | 4.64 µM and 8.64 µM | 23.9 | > 100 | 13.6 | 7.14 | 4.97 µM and 13.1 µM | –
14 | S=P1(Oc2ccccc2)NNP2(=NP(N3CC3)(N3CC3)=NP(N3CC3)(N3CC3)=N2)NN1 (stereo unspecified) | > 100 | > 100 | – | > 100 | > 100 | > 100 | > 100 | > 100 | – | – | – | – | – | – | – | –
15 | O=C1C(C(Nc2ccccc2)c2ccccc2)=C([O-])c2ccccc21.O=C1C(C(Nc2ccccc2)c2ccccc2)=C([O-])c2ccccc21.[Cu+2] (stereo unspecified) | > 100 | – | > 100 | > 100 | – | – | 65.4 | > 100 | 40.9 | – | 30.6 | – | 54.5 | – | 22.5 µM | > 100
16 | CCCOc1nc(N)c2cnn(C3CCCCO3)c2n1 (stereo unspecified) | – | > 100 | > 100 | > 100 | > 100 | > 100 | > 100 | > 100 | – | – | – | – | – | – | – | –
17 | CN(C)C=Nc1nc(=O)n(C2CCC(CO)O2)cc1F (stereo unspecified) | – | > 100 | > 100 | – | > 100 | > 100 | > 100 | > 100 | – | – | – | – | – | – | – | –
18 | CC1(C)CC(c2c[nH]c3ccccc23)=CC2=Nc3ccccc3C21O (stereo unspecified) | > 100 | – | 64.3 | > 100 | > 100 | > 100 | > 100 | > 100 | – | – | – | – | – | – | – | –
19 | O=c1c2cccnc2ncn1CCN1CCCCC1 | – | > 100 | > 100 | > 100 | > 100 | > 100 | > 100 | > 100 | – | – | – | – | – | – | – | –
20 | Clc1ccc2cccc3c2c1C1OC3c2ccccc21 (stereo unspecified) | > 100 | > 100 | > 100 | > 100 | > 100 | > 100 | > 100 | – | – | – | – | – | – | – | – | –
